Data published in US11896612B2, “Resurrection of antibiotics that MRSA resists by silver-doped bioactive glass-ceramic particles” (Board of Trustees of Michigan State University, priority 2019, dated 2024).
Entries after “also recorded” stand apart in the source; their conditions may differ.

Experiments:
[1] = tested on: human mesenchymal stem cells (hBMSC); experiment: Proliferation of human mesenchymal stem cells, CCK-8; type: cell-based; conditions: 0.2 mg/mL Ag2O in transwell, 4 days exposure
Method: Primary bone-marrow derived human mesenchymal stem cells (hBMSC) isolated from healthy donor were obtained from the Institute of Regenerative Medicine, Texas A&M University. Frozen vials of cells were thawed and cultured a in α-MEM supplemented with 16% fetal bovine serum, 1% Antibiotic-Antimycotic and 1% L-glutamine (hereafter, growth medium) in a humidified 37° C./5% CO2 incubator. Cells were expanded until 90% confluence to a final passage. Cells were enzymatically lifted, centrifuged for 5 min and re-suspended fresh media. Cells were seeded at a density of 15×10^3 cells/mL on each well of 24-well plate by pipetting 0.5 mL/well. After 24 h, Ag-BGN (5, 10 and 20 mg/mL) were transferred to porous transwells and inside the wells to treat cell for 2, 4, 6, 8 and 10 days. The results were compared to a positive control consisting on cell immersed only in media and a negative control consisting on cells treated with Ag2O exposed using a porous transwell. […]
After each time point, cell viability and proliferation were assessed introducing a CCK-8 kit solution in the wells after removing the transwells. After 2 h, […] were drawn and placed in a 96 well plate and its optical density was measured at 470 nm wavelength. […]

[2] = tested on: methicillin-resistant S. aureus USA300 JE2; experiment: Antibacterial test: CFU enumeration of MRSA suspended in PBS (growth-arrested); type: cell-based, Staphylococcus aureus; conditions: 24 hours; for bacterial inhibition by antibiotic alone: PBS, static, oxacillin 0.1-50 μg/ml, vancomycin up to 10 mg/ml, fosfomycin 0.05-50 μg/ml, gentamicin 0.01 μg/ml
Method: All experiments are conducted using the laboratory derived methicillin-resistant S. aureus USA300 JE2. Cells are streaked for isolation on tryptic soy agar (TSA) and cultured at 37° C. overnight. An isolated colony is then grown in broth (TSB), shaking at 225 rpm at 37° C. overnight. Next, 1 mL solution of MRSA in PBS, normalized to an optical density (OD600 nm) equal to 1 (equivalent to 10^8 CFU/mL) is prepared. The bacterial suspension is mixed in a 1:1 volume ratio, with each of the solutions containing twofold the final concentration of Ag-BG, antibiotic, or the indicated Ag-BG/antibiotic combination. An untreated control is also prepared by mixing the bacterial suspension in a 1:1 volume ratio with PBS.
Bacterial suspensions are placed in a 37° C. incubator for the indicated time. At each time point, an aliquot of the bacterial suspension is removed to enumerate colony forming units (CFU) of the bacteria via serial dilution and plating on TSA. All plates are incubated at 37° C. Quantification of CFU are performed in biological and technical triplicate. Measurements are repeated three times. Standard deviation is indicated as error bars. Statistical analysis is performed using the paired Student's t-test, two tailed, n=9 and p<0.05.
The bactericidal properties of Ag-BG alone, vancomycin alone (vanc) and the combination of Ag-BG with vancomycin (Ag-BG/vanc) were studied against laboratory-derived methicillin-resistant S. aureus (MRSA) USA300 JE241. The bacteria cells were prepared by isolation of a single colony, followed by its inoculation in tryptic soy broth overnight at 37° C. A bacterial suspension was prepared by adjusting the concentration of the overnight culture to 108 colony forming units (CFU)/mL in Phosphate Buffered Saline (PBS). Then, the bacterial suspension was mixed 1:1 with the corresponding treatment (Ag-BG, Ag-BG/vanc or vanc) to a final volume of 1 mL. A negative control was prepared by suspending bacteria 1:1 in PBS. After 24 h of incubation at 37° C., […] of suspension were drawn from the mixture for CFU enumeration in tryptic soy agar plates. The effect of the treatments was evaluated based on the decrease of CFU compared to the negative control. Quantification of CFU was performed in biological and technical triplicates.
Vancomycin (molecular formula: C66H75C12N9O24·HCl, Vancomycin hydrochloride) is a cell-wall targeting antibiotic with no effect against MRSA under growth-arrested conditions and was selected for this example. Here, the concentration dependency of this synergism was evaluated by exposing MRSA to different combinations of Ag-BG/vanc. Two experimental set-ups were considered. Initially, 0.5 mg/mL of vancomycin were delivered together with 1.25, 2.5, 3.75 or 6.5 mg/mL of Ag-BG and then, 2.5 mg/mL of Ag-BG were combined with 0.1, 0.3, 0.5 and 1 mg/mL of vancomycin. The Ag-BG powder was sterilized using UV radiation before exposure to bacteria. The antibiotic treatment was prepared by dilution of vancomycin powder at different concentrations in PBS, and the Ag-BG/vanc samples were prepared by mixing Ag-BG powder with the corresponding vancomycin solution.

MRSA [3] = experiment: TEM and SEM imaging of MRSA after exposure; type: cell-based, Staphylococcus aureus; conditions: 24 hours exposure in PBS
Method: After 24 hours of incubation, solutions are prepared for studies with TEM to observe the morphology and ultrastructural properties of bacteria in each of the tested groups. The cultures are centrifuged and fixed using Karnovsky fixative, consisting of 2.5% glutaraldehyde, 2.5% paraformaldehyde and 0.1 M cacodylate buffer dissolved in deionized water. In the cases of the tested groups with Ag-BG particles, the particles are removed by allowing them to settle to the bottom of the Eppendorf microcentrifuge tubes before centrifugation and fixation. Bacteria pellets are suspended and incubated in fixative for 2 hours at room temperature. Next, the suspensions are centrifuged to remove the fixative. To capture bacteria in a solid matrix, a drop of a 2% agarose deionized water solution is added to the cell pellet. After the agarose solidifies, the matrix is washed three times at room temperature for 15 minutes with 0.1 M cacodylate buffer. A solution of 2% osmium tetroxide is used to stain the bacterial cells for 1 hour at the post-fixation stage. Subsequently, the cubes are washed with deionized water. Dehydration is done by a series of different concentrations of acetone: 25%, 50%, 75%, and 100%. Next, Spurr resin is infiltrated in a series of dilutions in acetone (acetone: resin): 3:1, 1:1, and 100% resin for two days. The cells are embedded in 100% Spurr resin at 60° C. for 24 hours and then, thin sections of less than 100 nm thickness are obtained by ultramicrotome (RMC MYX ultramicrotome) with glass knives and are mounted in bare copper grids. Positive staining is done with 2% uranyl acetate for 7 minutes and lead citrate for 3 minutes. Finally, samples are observed at 100 kV in a JEOL 100CX microscope.
Bacterial morphology upon exposure to Ag-BG particles is studied using SEM. Cells are prepared after 12 hours of exposure. In this case, the Ag-BG particles remain in the solution with the cells and are fixed using 2.5% glutaraldehyde, 2.5% paraformaldehyde, and 0.1 M cacodylate buffer dissolved in deionized water. […]

MRSA [4] = experiment: Vancomycin susceptibility of MRSA cultured in tryptic soy broth (TSB); type: cell-based, Staphylococcus aureus
Method: Oxacillin and fosfomycin are used at 0.1 and 0.05 μg/ml, respectively—a concentration that is considerably lower than their MIC. Vancomycin (molecular formula: C66H75C12N9O24·HCl, Vancomycin hydrochloride) is selected due to a mechanism of action that is dependent on cell growth. MRSA is susceptible to 0.47 μg/ml of vancomycin when cultured in tryptic soy broth (TSB). However, exposure to vancomycin in growth arrested conditions, such as suspension in phosphate buffered saline (PBS), enhances tolerance to the antibiotic. Cells are exposed to 0.5 mg/ml vancomycin in PBS. […] All antibiotics are purchased from Sigma Aldrich in powder USP Reference Standard and are used without further purification.

eukaryotic cells = conditions: cited from earlier work
bacteria = conditions: cited from earlier work

Which cell viability [1] does the source give for `[Ag+].[Ag+].[O-2]` [Ag2O] here?
Its cell viability is “not viable”.

For `C[C@@H]1O[C@@H]1P(=O)(O)O` [fosfomycin, Fosfomycin], which “bacterial inhibition by antibiotic alone” value [2] is on record?
The value was “resistant”.

What about the “bacterial ultrastructure by TEM” value (MRSA [3]) of the same molecule?
Its value is “intact cells”.

What does the source list for `Cc1onc(-c2ccccc2)c1C(=O)N[C@@H]1C(=O)N2[C@@H]1SC(C)(C)[C@@H]2C(=O)O` [oxacillin, Oxacillin]?
bacterial inhibition by antibiotic alone [2]: no demonstrable bacterial inhibition; bacterial ultrastructure by TEM (MRSA [3]): intact cells

For `CN[C@H](CC(C)C)C(=O)N[C@H]1C(=O)N[C@@H](CC(N)=O)C(=O)N[C@H]2C(=O)N[C@H]3C(=O)N[C@H](C(=O)N[C@H](C(=O)O)c4cc(O)cc(O)c4-c4cc3ccc4O)[C@H](O)c3ccc(c(Cl)c3)Oc3cc2cc(c3O[C@@H]2O[C@H](CO)[C@@H](O)[C@H](O)[C@H]2O[C@H]2C[C@](C)(N)[C@H](O)[C@H](C)O2)Oc2ccc(cc2Cl)[C@H]1O` [vancomycin, Vancomycin], which “bacterial inhibition by antibiotic alone” value [2] is on record?
The value was “not lethal; also recorded: no reduction of CFU/mL”.

What about the “concentration to which MRSA is susceptible” value (MRSA [4]) of the same molecule?
Its value is 0.47 µg/mL.

What about the “bacterial ultrastructure by TEM” value (MRSA [3]) of the same molecule?
The value was “intact cells”.

With Gentamicin as the molecule, how does the “bacterial inhibition by antibiotic alone” value [2] read?
Its value is “does not inhibit significantly”.

What about the “concentration that significantly inhibits MRSA” value ([2]; static conditions) of the same molecule?
Its value is “higher than 0.1 μg/ml”.

What does the source list for silver ions?
lowest concentration that induces cytotoxicity (eukaryotic cells): 1.6 ppm; minimum bactericidal concentration (bacteria): 0.1 ppm
